Data on nine molecules can be found in article PMC2635097 (Molecular pharmacology, 2008).

One data set relates to cloned KCa3.1 channels. As to conditions: cited from earlier work.
The next data set deals with KCa2.3. As to conditions: read-out: EC50 KCa2.3 currents; ref Hougaard et al., 2007; cited from earlier work.
A further data set has as its system KCa2.2. As to conditions: cited from earlier work.
Another data set has as its system KCa2.1. As to conditions: ref Hougaard et al., 2007; cited from earlier work.
For the next data set, the system named is KCa2/3 channels. As to conditions: ref Strøbæk et al., 2004; cited from earlier work.
The next data set has as its target hKCa2.3 (Homo sapiens, UniProt Q9UGI6). The data set is described as follows: Whole-cell patch-clamp of KCa2.3 currents. Type of data set: cell-based. For orientation: Patch clamp records ionic current or voltage across a cell membrane.
The target of the next data set is T1, K2P2.1 (TREK-1) (Mus musculus, UniProt P97438).
T1 sequence (P97438 1-426): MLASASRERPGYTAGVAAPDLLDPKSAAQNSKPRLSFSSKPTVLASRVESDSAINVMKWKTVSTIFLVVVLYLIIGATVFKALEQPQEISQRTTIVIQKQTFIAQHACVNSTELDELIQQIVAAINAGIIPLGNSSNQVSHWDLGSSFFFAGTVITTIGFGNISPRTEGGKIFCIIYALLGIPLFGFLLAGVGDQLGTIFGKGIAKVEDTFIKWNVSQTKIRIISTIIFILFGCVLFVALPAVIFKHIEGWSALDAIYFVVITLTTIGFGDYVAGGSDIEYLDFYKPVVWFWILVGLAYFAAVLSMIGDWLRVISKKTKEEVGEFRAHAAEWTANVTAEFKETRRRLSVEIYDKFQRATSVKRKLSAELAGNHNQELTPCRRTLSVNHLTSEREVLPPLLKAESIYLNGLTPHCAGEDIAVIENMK
The data set is described as follows: Selectivity patch-clamp, endothelial cell TREK-1 currents. Type of data set: cell-based.

Another data set deals with Rat Kv3.2 (Rattus norvegicus, UniProt P22462). The data set is described as follows: Selectivity patch-clamp, Kv3.2 currents. Type of data set: cell-based.
The target in the next data set is rKCa2.2 (Rattus norvegicus, UniProt P70604). The data set is described as follows: Whole-cell patch-clamp of KCa2.2 currents. Type of data set: cell-based.
Chain of rKCa2.2 (P70604 whole entry): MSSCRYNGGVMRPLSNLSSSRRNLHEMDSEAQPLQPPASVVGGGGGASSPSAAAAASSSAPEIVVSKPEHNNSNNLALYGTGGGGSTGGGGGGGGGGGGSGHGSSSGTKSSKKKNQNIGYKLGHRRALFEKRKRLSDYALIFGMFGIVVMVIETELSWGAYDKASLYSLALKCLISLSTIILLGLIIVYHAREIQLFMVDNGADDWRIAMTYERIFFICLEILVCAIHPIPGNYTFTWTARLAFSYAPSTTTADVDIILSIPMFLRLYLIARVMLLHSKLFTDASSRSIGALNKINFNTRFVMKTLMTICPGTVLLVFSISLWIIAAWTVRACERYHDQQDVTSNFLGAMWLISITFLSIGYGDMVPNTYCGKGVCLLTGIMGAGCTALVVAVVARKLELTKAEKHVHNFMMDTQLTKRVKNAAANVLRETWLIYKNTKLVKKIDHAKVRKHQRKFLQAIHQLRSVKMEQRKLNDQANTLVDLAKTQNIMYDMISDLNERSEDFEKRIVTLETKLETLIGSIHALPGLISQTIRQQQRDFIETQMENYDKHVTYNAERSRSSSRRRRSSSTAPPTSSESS
A further data set addresses mKv3.1 (Mus musculus, UniProt P15388). The data set is described as follows: Selectivity patch-clamp, Kv3.1 currents. Type of data set: cell-based.
The target of another data set is hKCa3.1 (Homo sapiens, UniProt O15554). The data set is described as follows: Whole-cell patch-clamp of KCa3.1 currents. Type of data set: cell-based.
Chain of hKCa3.1 (O15554 whole entry): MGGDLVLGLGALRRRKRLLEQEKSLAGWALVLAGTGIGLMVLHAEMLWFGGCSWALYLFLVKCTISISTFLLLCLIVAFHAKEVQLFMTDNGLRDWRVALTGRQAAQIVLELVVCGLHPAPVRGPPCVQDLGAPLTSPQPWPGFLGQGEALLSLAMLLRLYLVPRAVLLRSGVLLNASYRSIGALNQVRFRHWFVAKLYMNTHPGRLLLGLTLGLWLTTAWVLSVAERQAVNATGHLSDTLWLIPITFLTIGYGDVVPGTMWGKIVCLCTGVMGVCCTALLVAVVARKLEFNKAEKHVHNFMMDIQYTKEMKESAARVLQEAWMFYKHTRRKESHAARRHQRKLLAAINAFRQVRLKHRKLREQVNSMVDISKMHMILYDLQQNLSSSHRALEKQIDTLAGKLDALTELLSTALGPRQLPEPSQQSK
In the next data set the target is T2, rKv4.2 (Rattus norvegicus, UniProt Q63881).
T2 sequence (Q63881 1-630): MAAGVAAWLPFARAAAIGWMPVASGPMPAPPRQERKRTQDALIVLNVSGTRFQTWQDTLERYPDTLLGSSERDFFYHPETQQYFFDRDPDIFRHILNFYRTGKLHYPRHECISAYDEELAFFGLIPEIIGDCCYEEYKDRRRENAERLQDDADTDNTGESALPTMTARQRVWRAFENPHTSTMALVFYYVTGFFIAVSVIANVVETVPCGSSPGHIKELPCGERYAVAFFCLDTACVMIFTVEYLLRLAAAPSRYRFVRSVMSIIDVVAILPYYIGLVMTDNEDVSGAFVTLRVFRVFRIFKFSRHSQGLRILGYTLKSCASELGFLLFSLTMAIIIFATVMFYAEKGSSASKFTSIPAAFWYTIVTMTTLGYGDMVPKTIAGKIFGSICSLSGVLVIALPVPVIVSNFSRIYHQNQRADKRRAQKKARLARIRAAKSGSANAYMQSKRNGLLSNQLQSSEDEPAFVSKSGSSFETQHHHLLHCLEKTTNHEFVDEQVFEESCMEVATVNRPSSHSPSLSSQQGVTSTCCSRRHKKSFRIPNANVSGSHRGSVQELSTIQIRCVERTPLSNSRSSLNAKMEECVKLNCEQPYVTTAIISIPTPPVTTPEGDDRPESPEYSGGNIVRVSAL
The data set is described as follows: Selectivity patch-clamp, Kv4.2 currents. Type of data set: cell-based.

For a further data set, the target named is hKCa1.1 (Homo sapiens, UniProt Q12791). The data set is described as follows: Selectivity patch-clamp, KCa1.1 currents. Type of data set: cell-based. As to conditions: 1 μM free Ca2+.
The next data set concerns the target mKv1.1 (Mus musculus, UniProt P16388). The data set is described as follows: Selectivity patch-clamp, Kv1.1 currents. Type of data set: cell-based.
Another data set deals with hKv1.5 (Homo sapiens, UniProt P22460). The data set is described as follows: Selectivity patch-clamp, Kv1.5 currents. Type of data set: cell-based.
A further data set addresses Nav1.2 (Mus musculus, UniProt B1AWN6). The data set is described as follows: Selectivity patch-clamp, Nav1.2 currents from N1E-115 cells. Type of data set: cell-based.
The target of a further data set is hKCa2.1 (Homo sapiens, UniProt Q92952). The data set is described as follows: Whole-cell patch-clamp of KCa2.1 currents. Type of data set: cell-based.
Chain of hKCa2.1 (Q92952 whole entry): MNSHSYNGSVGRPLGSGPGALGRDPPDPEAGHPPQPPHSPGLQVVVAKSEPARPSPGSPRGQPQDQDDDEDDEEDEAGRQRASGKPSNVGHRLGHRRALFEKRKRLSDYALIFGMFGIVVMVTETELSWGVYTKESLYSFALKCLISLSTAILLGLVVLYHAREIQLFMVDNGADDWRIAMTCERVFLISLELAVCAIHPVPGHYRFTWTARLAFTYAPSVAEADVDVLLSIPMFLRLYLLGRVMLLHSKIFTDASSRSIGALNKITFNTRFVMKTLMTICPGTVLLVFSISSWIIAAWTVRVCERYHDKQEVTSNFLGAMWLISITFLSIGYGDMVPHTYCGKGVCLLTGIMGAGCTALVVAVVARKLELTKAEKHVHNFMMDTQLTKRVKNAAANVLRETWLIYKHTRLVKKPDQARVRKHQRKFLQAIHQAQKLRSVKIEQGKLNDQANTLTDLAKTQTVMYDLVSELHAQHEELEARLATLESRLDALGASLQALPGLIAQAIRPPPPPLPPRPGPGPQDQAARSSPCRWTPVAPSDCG
For the next data set, the target named is Rat Nav1.5 (Rattus norvegicus, UniProt P15389). The data set is described as follows: Selectivity patch-clamp, Nav1.5 currents. Type of data set: cell-based.
A short description of a further data set: logP. Type of data set: physicochemical.
For another data set, the target named is hNav1.4 (Homo sapiens, UniProt P35499). The data set is described as follows: Selectivity patch-clamp, Nav1.4 currents. As to conditions: 10 μM. Type of data set: cell-based.
In data set [1] the test system is mice. The data set is described as follows: Maximal electroshock. Type of data set: in vivo, mouse. As to conditions: 100 mg/kg i.p., 15 min, 30 min and 1 hour. A general note: The maximal electroshock test induces tonic seizures with an electrical stimulus.
The test system of data set [2] is mice. Type of data set: in vivo, mouse. As to conditions: 100 mg/kg i.p., 15 min, 30 min and 1 hour.

Where two headings read alike, the source gives them in different places. Positions of bridges follow the written chain, without caps; N, C: chain ends. No end group written: not given here.

Chain of hKCa2.3 (Q9UGI6 whole entry): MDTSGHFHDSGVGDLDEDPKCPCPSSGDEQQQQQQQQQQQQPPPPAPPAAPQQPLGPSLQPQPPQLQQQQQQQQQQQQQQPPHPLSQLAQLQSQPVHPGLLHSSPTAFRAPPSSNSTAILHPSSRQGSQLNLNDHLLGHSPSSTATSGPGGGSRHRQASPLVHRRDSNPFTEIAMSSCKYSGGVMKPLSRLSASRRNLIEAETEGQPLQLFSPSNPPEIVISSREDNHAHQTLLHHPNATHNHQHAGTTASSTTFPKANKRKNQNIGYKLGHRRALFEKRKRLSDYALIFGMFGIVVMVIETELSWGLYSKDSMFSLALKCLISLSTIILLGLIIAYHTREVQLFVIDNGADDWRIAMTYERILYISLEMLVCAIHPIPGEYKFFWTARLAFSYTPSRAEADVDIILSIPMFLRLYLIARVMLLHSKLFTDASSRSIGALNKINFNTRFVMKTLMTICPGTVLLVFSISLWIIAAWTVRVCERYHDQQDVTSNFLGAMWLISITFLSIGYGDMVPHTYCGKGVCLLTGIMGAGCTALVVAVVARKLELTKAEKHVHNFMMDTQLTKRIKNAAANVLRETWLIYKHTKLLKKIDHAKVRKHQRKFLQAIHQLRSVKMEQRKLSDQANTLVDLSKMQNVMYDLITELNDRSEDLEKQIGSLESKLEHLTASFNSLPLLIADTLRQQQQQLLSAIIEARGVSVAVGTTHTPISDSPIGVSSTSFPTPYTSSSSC
Chain of mKv3.1 (P15388 whole entry): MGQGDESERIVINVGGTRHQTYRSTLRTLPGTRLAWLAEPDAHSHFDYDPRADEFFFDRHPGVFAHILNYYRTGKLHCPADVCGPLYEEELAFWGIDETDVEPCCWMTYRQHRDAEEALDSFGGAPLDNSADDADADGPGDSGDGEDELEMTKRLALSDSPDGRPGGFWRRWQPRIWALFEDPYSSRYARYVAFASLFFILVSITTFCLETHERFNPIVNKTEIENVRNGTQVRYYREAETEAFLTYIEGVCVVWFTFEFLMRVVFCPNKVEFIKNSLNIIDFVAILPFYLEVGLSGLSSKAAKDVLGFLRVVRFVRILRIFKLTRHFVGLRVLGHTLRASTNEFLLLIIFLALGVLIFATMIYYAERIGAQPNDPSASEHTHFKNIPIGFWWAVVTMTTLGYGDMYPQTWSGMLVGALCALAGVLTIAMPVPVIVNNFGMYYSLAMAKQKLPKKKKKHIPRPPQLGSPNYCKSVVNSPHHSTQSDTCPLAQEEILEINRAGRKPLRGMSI
Chain of Nav1.2 (B1AWN6 whole entry): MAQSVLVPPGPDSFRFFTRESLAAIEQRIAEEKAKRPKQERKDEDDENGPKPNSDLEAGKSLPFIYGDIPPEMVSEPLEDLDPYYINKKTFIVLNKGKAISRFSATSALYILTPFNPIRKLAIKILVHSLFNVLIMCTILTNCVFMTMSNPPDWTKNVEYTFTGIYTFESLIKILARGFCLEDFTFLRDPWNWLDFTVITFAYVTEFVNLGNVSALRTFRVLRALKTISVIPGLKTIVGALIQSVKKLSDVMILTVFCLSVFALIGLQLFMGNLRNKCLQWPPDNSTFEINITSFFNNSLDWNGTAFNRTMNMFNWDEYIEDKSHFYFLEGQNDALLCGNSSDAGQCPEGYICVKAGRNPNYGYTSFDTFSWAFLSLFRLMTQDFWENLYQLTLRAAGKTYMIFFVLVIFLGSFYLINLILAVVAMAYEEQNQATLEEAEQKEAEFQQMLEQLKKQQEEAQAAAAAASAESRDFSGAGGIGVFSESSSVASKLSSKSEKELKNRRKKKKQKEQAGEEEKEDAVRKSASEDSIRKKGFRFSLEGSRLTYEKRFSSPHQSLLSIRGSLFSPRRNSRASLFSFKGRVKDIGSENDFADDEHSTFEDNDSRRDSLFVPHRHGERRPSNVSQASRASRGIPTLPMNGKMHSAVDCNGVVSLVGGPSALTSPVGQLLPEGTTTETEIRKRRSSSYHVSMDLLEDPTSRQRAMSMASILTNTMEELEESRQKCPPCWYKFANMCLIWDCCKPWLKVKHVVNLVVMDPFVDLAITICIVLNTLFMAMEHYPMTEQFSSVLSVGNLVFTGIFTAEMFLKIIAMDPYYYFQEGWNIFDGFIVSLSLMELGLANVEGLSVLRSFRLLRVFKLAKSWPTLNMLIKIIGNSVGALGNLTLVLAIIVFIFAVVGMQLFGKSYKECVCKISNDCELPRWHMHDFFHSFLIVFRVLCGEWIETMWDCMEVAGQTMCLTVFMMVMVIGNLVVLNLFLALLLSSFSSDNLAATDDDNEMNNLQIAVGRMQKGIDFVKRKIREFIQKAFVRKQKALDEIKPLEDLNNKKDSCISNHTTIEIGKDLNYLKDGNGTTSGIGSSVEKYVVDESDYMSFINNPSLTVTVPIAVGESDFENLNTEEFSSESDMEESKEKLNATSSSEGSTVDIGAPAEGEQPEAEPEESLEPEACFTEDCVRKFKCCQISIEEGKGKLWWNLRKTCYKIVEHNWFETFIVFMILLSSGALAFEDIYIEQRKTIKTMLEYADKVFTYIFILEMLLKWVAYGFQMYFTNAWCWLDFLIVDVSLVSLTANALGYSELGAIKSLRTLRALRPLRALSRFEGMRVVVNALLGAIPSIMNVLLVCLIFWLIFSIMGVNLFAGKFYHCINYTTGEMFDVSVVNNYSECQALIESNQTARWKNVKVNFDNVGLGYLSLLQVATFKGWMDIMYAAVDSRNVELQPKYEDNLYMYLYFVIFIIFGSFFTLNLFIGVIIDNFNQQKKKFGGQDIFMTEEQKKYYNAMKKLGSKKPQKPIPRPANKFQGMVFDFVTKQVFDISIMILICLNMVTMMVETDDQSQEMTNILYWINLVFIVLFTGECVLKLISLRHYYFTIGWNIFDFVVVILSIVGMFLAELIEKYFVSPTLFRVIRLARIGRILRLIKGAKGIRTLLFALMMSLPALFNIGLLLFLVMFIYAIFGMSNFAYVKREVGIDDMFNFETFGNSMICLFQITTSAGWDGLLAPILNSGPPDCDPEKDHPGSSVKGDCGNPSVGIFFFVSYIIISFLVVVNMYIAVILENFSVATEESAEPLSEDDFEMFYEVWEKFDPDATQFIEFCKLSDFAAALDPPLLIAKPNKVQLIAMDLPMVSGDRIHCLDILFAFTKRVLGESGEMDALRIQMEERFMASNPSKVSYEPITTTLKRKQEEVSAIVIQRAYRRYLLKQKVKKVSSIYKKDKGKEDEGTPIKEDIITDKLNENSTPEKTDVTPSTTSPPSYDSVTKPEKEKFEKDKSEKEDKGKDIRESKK

One may read the EC50 as the midpoint of the concentration-response curve. Regarding `Cc1cc(NC2CCCCC2)nc(-n2nc(C)cc2C)n1` [CyPPA], in the data set on cloned KCa3.1 channels (ref Hougaard et al., 2007), the “effect on KCa3.1” value is listed as “no effect”. The concentration giving a half-maximal response (EC50) is 6 µM with KCa2.3 and 14 µM in the data set with KCa2.2 (read-out: EC50 KCa2.2 currents, ref Hougaard et al., 2007). The “effect on KCa2.1” value in the data set on KCa2.1 is recorded as “no effect”.
Regarding `CCn1c(=O)[nH]c2cc(Cl)c(Cl)cc21` [DCEBIO, 5,6-dichloro-EBIO], the EC50 with cloned KCa3.1 channels (read-out: EC50 KCa3.1, ref Singh et al., 2001) is 0.75 µM; in the data set with KCa2.2 (read-out: EC50 KCa2.2, ref Pedarzani et al., 2001), 27 µM.
As for `CCn1c(=O)[nH]c2ccccc21` [EBIO, 1-ethylbenzimidazolin-2-one], the concentration giving a half-maximal response (EC50) in the data set on cloned KCa3.1 channels (read-out: EC50 cloned KCa3.1 channels, ref Wulff et al., 2007) is 30 µM.
Take `O=C1Nc2c(ccc(Cl)c2Cl)C1=NO` [NS309, 6,7-dichloro-1H-indole-2,3-dione 3-oxime]: in the data set on KCa2/3 channels, the “concentrations activating KCa2 and KCa3.1 channels” value was “submicromolar concentrations”.
As usually defined, the IC50 is the concentration at which inhibition is half-maximal. Turning to `Cl.c1ccc2c(c1)CCC[C@H]2Nc1nc2ccccc2[nH]1` [NS8593, N-[(1R)-1,2,3,4-tetrahydro-1-naphthalenyl]-1H-benzimidazol-2-amine hydrochloride], the IC50 on hKCa2.3 (read-out: IC50 inhibition of KCa2.3 currents, absence of SKA-31) was 0.7 µM. In addition, on hKCa2.3 (with versus without SKA-31), the “shift of IC50 on KCa2.3 by SKA-31” value was “roughly 10 fold”.
With `Nc1nc2ccc(OC(F)(F)F)cc2s1` [Riluzole, 2-amino-6-[trifluoromethoxy]benzothiazole, reference compound], the 50% effective concentration (EC50) at K2P2.1 (TREK-1) was 110 ± 35 µM; on rKCa2.2, 12.8 µM; at hKCa3.1 it was 1.9 µM; at hKCa2.1, 21 µM. Besides, the IC50 on Rat Kv3.2 was found to be 100 ± 10 µM; at mKv3.1, 95 ± 5 µM; against rKv4.2, 130 ± 10 µM; on mKv1.1 it was 92 ± 7 µM; against hKv1.5, 95 ± 5 µM; at Nav1.2, 15 ± 3 µM. In addition, the “increase of KCa3.1 currents” value at hKCa3.1 (250 nM [Ca2+]i) was around 30 fold; at hKCa3.1 (1 μM [Ca2+]i), “roughly 3 fold”. Moreover, the “effect on KCa1.1 current at 100 μM” value at hKCa1.1 (100 μM) is reported as “Doubles current at 100 μM”.
One may read the logP as the decadic logarithm of the partition coefficient of the neutral form, usually between octanol and water. Low readings indicate lower lipophilicity, high ones higher lipophilicity. Consider `Nc1nc2ccc3cc4ccccc4cc3c2s1` [SKA-20, Anthra[2,1-d]thiazol-2-ylamine], for which, at Rat Nav1.5, the “Nav1.5 block at 10 μM” value came to 30 ± 5% block at 10 μM. Also, the “K2P2.1 (TREK-1) effect at 10 μM” value at K2P2.1 (TREK-1) (10 μM) is recorded as “No effect at 10 μM”. For the same molecule, the “Kv3.2 block at 10 μM” value at Rat Kv3.2 (10 μM) is 12 ± 5% block at 10 μM. Further, the EC50 on rKCa2.2 stood at 1.9 µM; at hKCa3.1 it was 0.115 µM; on hKCa2.3 (read-out: EC50 KCa2.3 activation, 250 nM [Ca2+]i), 1.2 µM; on hKCa2.1, 0.43 µM. Further, at mKv3.1 (10 μM), the “Kv3.1 block at 10 μM” value is 35 ± 3% block at 10 μM. At rKv4.2 (10 μM), the “Kv4.2 block at 10 μM” value came to 10 ± 3% block at 10 μM. Moreover, the “effect on KCa1.1 current at 10 μM” value at hKCa1.1 (10 μM) was “No effect at 10 μM”. Also, at mKv1.1 (10 μM), the “Kv1.1 block at 10 μM” value came to 12 ± 3%block at 10 μM. The molecule also showed a half-maximal inhibitory concentration (IC50) at Nav1.2 of 14 ± 2 µM. The molecule also had a lipophilicity (logP) in “logP” of 3.1. Also, the “Nav1.4 block at 10 μM” value on hNav1.4 is “No effect at 10 μM”.
For `Nc1nc2cc3c(cc2s1)CCC3` [SKA-29, 6,7-Dihydro-5H-indeno[5,6-d]thiazol-2-amine], the “protection from seizures, maximal electroshock (MES) model” value with mice [1] is given as “effectively protect mice from seizures”. Further, the “protection from seizures, 6 Hz minimal electroshock model” value in the data set on mice [2] is listed as “effectively protect mice from seizures”.
Consider “apamin (CNCKAPETALCARRCQQH-NH2; disulfide 1-11, 3-15; ends not checked; UniProt P01500 28-45, looked up)”, for which, in the data set with hKCa2.3 (read-out: IC50 blockade of hKCa2.3 currents, currents activated with 10 μM SKA-31, 250 nM free Ca2+), the IC50 is around 0.001 µM.
